# Test results reported in patent US9480253B2, “Use of 3-(2,4,6-Trimethylphenyl)-4-neopentylcarbonyloxy-5,5-tetramethylene-delta-3-dihydrofuran-2-one for controlling psyllids” (BAYER INTELLECTUAL PROPERTY GMBH, priority 2004, dated 2016).
# Tests used:
# [1] = system: Paratrioza cockerelli; test: Field spray test against psyllids on tomato (Example B); assay type: in vivo; details: 72 g a.i./ha, 240 SC
# Experimental: • Pest: Paratrioza cockerelli • Plant: Tomato The compound of the formula (I) (240 SC) was tested at an application rate of 72 […] water application rate of 345 l ha in comparison with Leverage (48 g a.i./ha imidacloprid+33 […]). Spraying was effected by means of a manually operated knapsack sprayer. The experiment was carried out with 10-m^2 plots and three replications. In each case two applications were carried out at an interval of one week. The activity against […] determined by counting the number of live animals on 10 leaves 7 days after the first treatment and 7 and 14 days after the second treatment. The efficacy was calculated with the aid of Abbott's formula.
# [2] = system: insects from the family Aleyrodidae; details: known from EP-A-0 528 156; cited from earlier work
# [3] = system: Trioza erythreae; test: Field spray test against psyllids on orange trees (Example A); assay type: in vivo; details: 144 g a.i./ha, 240 SC + 0.2% RME; for Efficacy in % Abbott 7TNAA: 540 l water per ha, 7 days after the first treatment; for Efficacy in % Abbott 7TNAB / Efficacy in % Abbott 13TNAB: two applications at interval of one week; for Efficacy in % Abbott 7TNAB: 7 days after the last treatment; for Efficacy in % Abbott 13TNAB: 13 days after the last treatment
# Experimental: • Pest: Trioza erythreae • Plant: Orange
# The compound of the formula (I) (240 SC) was tested at an application rate of 144 g a.i./ha+0.2% a.i. rapeseed oil methyl ester (RME) at 540 l water per ha in comparison with spirodiclofen application rate comparison.
# Spraying was effected by means of a pneumatic knapsack sprayer.
# The experiment was carried out using one tree per plot and three replications. In each case two applications were carried out at an interval of one week.
# The activity against psyllids was determined by counting the number of live animals on 20 leaves per tree 7 days after the first treatment and 7 and 13 days after the last treatment. The efficacy was calculated with the aid of Abbott's formula.
# [4] = known from EP-A-0 528 156; cited from earlier work
# [5] = system: insects from the family Psyllidae; test: Control of insects from the family Psyllidae, comparison with spirodiclofen; assay type: in vivo
# [6] = system: psyllids; details: under certain conditions; timing of application very limited (De Maeyer et al.); cited from earlier work
Structure (SMILES),"Efficacy in % Abbott 7TNAA ([1]; 345 l water/ha, 7 days after the first treatment)","Efficacy in % Abbott 7TNAB ([1]; two applications at interval of one week, 7 days after the second treatment)","Efficacy in % Abbott 14TNAB ([1]; two applications at interval of one week, 14 days after the second treatment)",activity against insects from the family Aleyrodidae [2],Efficacy in % Abbott 7TNAA [3],Efficacy in % Abbott 7TNAB [3],Efficacy in % Abbott 13TNAB [3],acaricidal activity [4],effectiveness in controlling insects from the family Psyllidae relative to spirodiclofen [5],ovicidal activity against psyllids [6]
"Cc1cc(C)c(C2=C(OC(=O)CC(C)(C)C)C3(CCCC3)OC2=O)c(C)c1 [Compound of the formula (I), 3-(2,4,6-Trimethylphenyl)-4-neopentylcarbonyloxy-5,5-tetramethylene-Δ^3-dihydrofuran-2-one]",80.3 % Abbott,84.8 % Abbott,98.7 % Abbott,active,95 % Abbott,97.5 % Abbott,95.2 % Abbott,acaricidal activity,considerably more effective than spirodiclofen,–
"CCC(C)(C)C(=O)OC1=C(c2ccc(Cl)cc2Cl)C(=O)OC12CCCCC2 [Spirodiclofen, reference compound]",–,–,–,–,80.3 % Abbott,91.5 % Abbott,88.1 % Abbott,–,–,ovicidal activity
